Measured values published in patent publication US20190247398A1, “FORMULATIONS OF A MACROCYCLIC TRK KINASE INHIBITOR” (Array BioPharma Inc., priority 2017, published 2019).
Where two headings read alike, the source gives them in different places.

What was measured:
Assay type in all cases: physicochemical
[1] = 1 week stability tests (40° C./75% RH, 80° C., ambient light; XRPD and UPLC)
Thermodynamic solubility = details: for solubility thermodynamic at 24 h: thermodynamic from solid, ambient temperature, read-out: Concentration (thermodynamic solubility)
Description: Thermodynamic solubility studies were carried out as follows: 10 mg of prepared salts were suspended in pH 1, 4.5, 6.8 and un-buffered water (300 μL). The pH of the slurries was measured and adjusted accordingly using either 0.2M HCl solution or 0.2M sodium hydroxide solution. The slurries were agitated for 24 hours at ambient temperature using an incubator shaker.

[2] = Hydration screen (acetone/water mixtures of various water activities); details: ambient
Description: Hydration screen was carried out as follows: 10 mg of prepared salts were suspended in several acetone/water mixtures of various water activities (low: aw=0.281, medium: aw=0.776 and high: aw=0.919) and agitated at ambient temperatures for 24 hr. Any recovered solids were submitted for XRPD analysis to determine any changes to form.

[3] = Dynamic vapor sorption (DVS)
Description: Approximately, 10 mg of sample was placed into a mesh vapor sorption balance pan and loaded into a DVS-1 dynamic vapor sorption balance by Surface Measurement Systems. The sample was subjected to a ramping profile from 40-90% relative humidity (RH) at 10% increments, maintaining the sample at each step until a stable weight had been achieved (99.5% step completion). After completion of the sorption cycle, the sample was dried using the same procedure to 0% RH and then a second sorption cycle back to 40% RH. The weight change during the sorption/desorption cycles were plotted, allowing for the hygroscopic nature of the sample to be determined. XRPD analysis was then carried out on any solid retained.

[4] = Salt disproportionation studies; details: deionized water, 24 h, ambient temperature
Description: Salt disproportionation studies were carried out as follows: 20 mg of prepared salts were weighed into a vial and 0.5 mL of deionized water was added. The samples were then agitated for 24 h at ambient temperature. The pH of the samples was taken pre- and post-agitation. Any solids recovered were submitted for XRPD analysis to determine any changes to form.

[5] = Salt stability studies (40° C./75% RH for 1 week, XRPD)
Description: Recovered salts were placed in an oven at 40° C./75% RH for 1 week, and the resultant materials were analyzed by XRPD to determine any changes to form or crystallinity.

[6] = Gravimetric vapor sorption (GVS)
Description: Approximately 10-20 mg of sample was placed into a mesh vapor sorption balance pan and loaded into an IGASorp Moisture Sorption Analyzer balance by Hiden Analytical. […] After completion of the sorption cycle, the sample was dried using the same procedure to 0% RH, and finally taken back to the starting point of 40% RH. The weight change during the sorption/desorption cycles were plotted, allowing for the hygroscopic nature of the sample to be determined.

[7] = pH 6.8 potassium phosphate buffer, aqueous buffer, pH 6.8 buffer
[8] = simulated gastric fluid, pH 1 buffer
[9] = high water activity aw=0.919, 24 hr
[10] = low water activity aw=0.281, 24 hr
[11] = medium water activity aw=0.776, 24 hr

SMILES | change in purity after 1 week stability test (UPLC) ([1]; 40° C./75% RH) | change in purity after 1 week stability test (UPLC) ([1]; 80° C.) | change in purity after 1 week stability test (UPLC) ([1]; ambient light) | solubility thermodynamic at 24 h (Thermodynamic solubility; aqueous buffer, pH 4.5 buffer) [µg/mL] | thermodynamic solubility (in words) (Thermodynamic solubility; pH 1) | solids recovered after thermodynamic solubility study (XRPD) (Thermodynamic solubility; pH 4.5) | thermodynamic solubility (in words) (Thermodynamic solubility; pH 4.5) | solids recovered after thermodynamic solubility study (XRPD) (Thermodynamic solubility; pH 6.8) | thermodynamic solubility (in words) (Thermodynamic solubility; pH 6.8) | solubility thermodynamic at 24 h (Thermodynamic solubility; [7]) [µg/mL] | solubility thermodynamic at 24 h (Thermodynamic solubility; [8]) [µg/mL] | solubility thermodynamic at 24 h (Thermodynamic solubility; un-buffered water) [µg/mL] | solids recovered after thermodynamic solubility study (XRPD) (Thermodynamic solubility; un-buffered water) | thermodynamic solubility (in words) (Thermodynamic solubility; un-buffered water) | solid recovered from hydration screen (XRPD) [2, 9] | solid recovered from hydration screen (XRPD) [2, 10] | solid recovered from hydration screen (XRPD) [2, 11] | material recovered after salt disproportionation study (XRPD) [4] | changes to form or crystallinity after stability conditions (XRPD) ([5]; salt recovered from acetone) | other results
C[C@@H]1CCc2ncc(F)cc2[C@H]2CCCN2c2ccn3ncc(c3n2)C(=O)N1.O=C(O)CC(O)(CC(=O)O)C(=O)O [Compound 1 citrate] | no change to purity | no change to purity | no change to purity | 300 | high solubility | Compound 1 citrate | lower solubility | poorly crystalline free base | lower solubility | 900 | 18600 | 21000 | Compound 1 citrate | highly soluble | poorly crystalline citrate salt | poorly crystalline citrate salt | unknown form, referred to here as Form B | poorly crystalline citrate salt | a decrease to crystallinity but no change to form | change to form after 1 week stability test (XRPD) ([1]; 40° C./75% RH): no change to form; change to form after 1 week stability test (XRPD) ([1]; 80° C.): no change to form; change to form after 1 week stability test (XRPD) ([1]; ambient light): no change to form; solids recovered after thermodynamic solubility study (XRPD) (Thermodynamic solubility; pH 1): poorly crystalline solids; hygroscopicity by DVS (in words) ([3]; DVS humidity conditions): low hygroscopicity; change in crystalline form after exposure to DVS conditions (post-DVS XRPD) ([3]; after DVS cycle): no changes in crystalline form; mass uptake (DVS) ([3]; at 90% RH): around 1.8%; changes to form or crystallinity after stability conditions (XRPD) ([5]; salt recovered from TBME): a decrease to crystallinity but no change to form
CS(=O)(=O)O.C[C@@H]1CCc2ncc(F)cc2[C@H]2CCCN2c2ccn3ncc(c3n2)C(=O)N1 [Compound 1 mesylate] | no change to purity | no change to purity | no change to purity | 9300 | moderately soluble | mesylate salt | moderately soluble | free base | low solubility | 1500 | 14300 | 9600 | free base | moderately soluble | free base | a mixture of free base and salt | mesylate salt | no change to form by XRPD analysis but crystallinity reduced | no changes to crystallinity or form | RH at which the material deliquesced (GVS) ([6]; GVS humidity conditions): 30 % RH; hygroscopicity by GVS (in words) ([6]; GVS humidity conditions): high hygroscopicity; change in crystalline form after exposure to GVS conditions (post-GVS XRPD) ([6]; after GVS cycle): desolvate and become the mesylate form seen in the salt screen; mass uptake (GVS) ([6]; at 90% RH): about 32%; changes to form or crystallinity after stability conditions (XRPD) ([5]; salt recovered from isopropanol): a slight increase in crystallinity but no changes to form; changes to form or crystallinity after stability conditions (XRPD) ([5]; salt recovered from methanol): a decrease in crystallinity but no changes to form
